Among the data in ChEMBL document CHEMBL1158592, “Synthesis and biological evaluation of isoflavone fatty acid esters with potential weight loss and hypolipidemic activities” (Bioorg Med Chem, 2010) are Activity, inhibition and LD50 values, retold here.

By LD50 is commonly meant the dose at which mortality reaches 50%. A low value points to greater toxicity.

Data set [1] deals with Mus musculus. As to the kind of experiment: Hypolipidemic activity in high fat diet-fed C57BL/6 mouse assessed as decrease in plasma triglyceride level at 200 mg/kg, ig administered QD for 4 weeks. It is filed as functional, organism-based. Further details: dose 200 mg/kg.
Data set [2] deals with Mus musculus. The data set is described as follows: Hypolipidemic activity in high fat diet-fed C57BL/6 mouse assessed as decrease in plasma total cholesterol level at 200 mg/kg, ig administered QD for 4 weeks. It is filed as functional, organism-based. Further details: dose 200 mg/kg.
For data set [3], the system named is Mus musculus. The data set is described as follows: Hypolipidemic activity in high fat diet-fed C57BL/6 mouse assessed as increase in plasma HDL level at 200 mg/kg, ig administered QD for 4 weeks. It counts as functional, organism-based. Further details: dose 200 mg/kg.
The test system of data set [4] is Mus musculus. The data set is described as follows: Hypolipidemic activity in high fat diet-fed C57BL/6 mouse assessed as decrease in plasma LDL level at 200 mg/kg, ig administered QD for 4 weeks. Set-up: dose 200 mg/kg. It counts as functional, organism-based.
In data set [5] the test system is 3T3-L1. As to the kind of experiment: Increase in PPARgamma mRNA levels in mouse 3T3L1 cells at 100 umol/L by RT-PCR. It is filed as functional, cell-based.
Data set [6] relates to 3T3-L1. As to the kind of experiment: Inhibition of mouse 3T3L1 cells differentiation after 48 hrs by oil-red-O staining. It counts as functional, cell-based.
For data set [7], the system named is 3T3-L1. As to the kind of experiment: Decrease in triglyceride content in mouse 3T3L1 cells assessed as reduction of lipid droplets after 48 hrs by oil-red-O staining. It is filed as functional, cell-based.
Data set [8] relates to Rattus norvegicus. As to the kind of experiment: Antiobese activity in high fat diet-fed Sprague-Dawley rat assessed as plasma triglyceride level at 50 mg/kg, ig administered QD for 30 days (reference value: 1.25+/-0.23 mmol/L). It is filed as functional. The settings on record: route intragastric.
Data set [9] concerns Rattus norvegicus. As to the kind of experiment: Antiobese activity in high fat diet-fed Sprague-Dawley rat assessed as body weight at 50 mg/kg, ig administered QD for 30 days (reference value: 355+/-36 g). To be noted: route intragastric. It is filed as functional.
Data set [10] concerns Rattus norvegicus. The data set is described as follows: Antiobese activity in high fat diet-fed Sprague-Dawley rat assessed as body fat mass measured per 100 g of body weight at 50 mg/kg, ig administered QD for 30 days (reference value: 6.4+/-1.4 g/100 g). The settings on record: route intragastric. It is filed as functional.
The test system of data set [11] is 3T3-L1. The data set is described as follows: Antiproliferative activity against mouse 3T3L1 cells after 48 hrs by MTT assay. It is filed as functional, cell-based. On the technique in general: Tetrazolium assays rely on reduction of a dye to a coloured formazan, in cell work by metabolically active cells.
Data set [12] concerns Mus musculus. The data set is described as follows: Hypolipidemic activity in high fat diet-fed C57BL/6 mouse assessed as decrease in plasma triglyceride level at 50 mg/kg, ig administered QD for 4 weeks. It is filed as functional, organism-based. Further details: dose 50 mg/kg.
Data set [13] relates to 3T3-L1. The data set is described as follows: Inhibition of mouse 3T3L1 cells differentiation assessed as morphological changes after 48 hrs by oil-red-O staining. It is filed as functional, cell-based.
The test system of data set [14] is Rattus norvegicus. As to the kind of experiment: Antiobese activity in high fat diet-fed Sprague-Dawley rat assessed as plasma total cholesterol level at 50 mg/kg, ig administered QD for 30 days (reference value: 1.86+/-0.31 mmol/L). It is filed as functional. To be noted: route intragastric.
The subject of data set [15] is Mus musculus. As to the kind of experiment: Hypolipidemic activity in high fat diet-fed C57BL/6 mouse assessed as increase in plasma HDL level at 50 mg/kg, ig administered QD for 4 weeks. It is filed as functional, organism-based. Set-up: dose 50 mg/kg.
Data set [16] can be described thus: Acute toxicity in ig dosed KM mouse by Bliss method. The settings on record: in vivo, po. It counts as organism-based.
Data set [17] concerns Mus musculus. As to the kind of experiment: Reduction in plasma insulin level in high fat diet-fed C57BL/6 mouse at 50 mg/kg, ig administered QD for 4 weeks. Further details: dose 50 mg/kg. It counts as functional, organism-based.
Data set [18] deals with Rattus norvegicus. The data set is described as follows: Antiobese activity in high fat diet-fed Sprague-Dawley rat assessed as plasma free fatty acid level at 50 mg/kg, ig administered QD for 30 days (reference value: 785.6+/-175.8 umol/L). The settings on record: route intragastric. It is filed as functional.
The test system of data set [19] is Mus musculus. As to the kind of experiment: Hypolipidemic activity in high fat diet-fed C57BL/6 mouse assessed as decrease in plasma LDL level at 50 mg/kg, ig administered QD for 4 weeks. It is filed as functional, organism-based. Set-up: dose 50 mg/kg.
Data set [20] relates to Mus musculus. The data set is described as follows: Hypolipidemic activity in high fat diet-fed C57BL/6 mouse assessed as decrease in plasma total cholesterol level at 50 mg/kg, ig administered QD for 4 weeks. Set-up: dose 50 mg/kg. It is filed as functional, organism-based.
The subject of data set [21] is Rattus norvegicus. The data set is described as follows: Antiobese activity in high fat diet-fed Sprague-Dawley rat assessed as body weight at 10 mg/kg, ig administered QD for 30 days (reference value: 355+/-36 g). It is filed as functional. The settings on record: route intragastric.
Data set [22] has as its system Rattus norvegicus. As to the kind of experiment: Antiobese activity in high fat diet-fed Sprague-Dawley rat assessed as plasma triglyceride level at 10 mg/kg, ig administered QD for 30 days (reference value: 1.25+/-0.23 mmol/L). It is filed as functional. To be noted: route intragastric.
In data set [23] the test system is Rattus norvegicus. The data set is described as follows: Antiobese activity in high fat diet-fed Sprague-Dawley rat assessed as body fat mass measured per 100 g of body weight at 10 mg/kg, ig administered QD for 30 days (reference value: 6.4+/-1.4 g/100 g). It is filed as functional. To be noted: route intragastric.
Data set [24] relates to Rattus norvegicus. The data set is described as follows: Antiobese activity in high fat diet-fed Sprague-Dawley rat assessed as plasma total cholesterol level at 10 mg/kg, ig administered QD for 30 days (reference value: 1.86+/-0.31 mmol/L). The settings on record: route intragastric. It is filed as functional.
Data set [25] concerns Rattus norvegicus. As to the kind of experiment: Antiobese activity in high fat diet-fed Sprague-Dawley rat assessed as plasma free fatty acid level at 10 mg/kg, ig administered QD for 30 days (reference value: 785.6+/-175.8 umol/L). It is filed as functional. The settings on record: route intragastric.

Activity calls are given as the source filed them. The rule behind the calls is not given here.

As for `O=C(O[C@H]1[C@H](OC(=O)c2cccnc2)[C@@H](OC(=O)c2cccnc2)[C@H](OC(=O)c2cccnc2)[C@@H](OC(=O)c2cccnc2)[C@H]1OC(=O)c1cccnc1)c1cccnc1`, the result in the data set on Mus musculus [1], in the data set with Mus musculus [2], with Mus musculus [3] and in the data set on Mus musculus [4] was Active.

As for `CCc1ccc(CCOc2ccc(CC3SC(=O)NC3=O)cc2)nc1` (stereo unspecified), the result in the data set with 3T3-L1 [5] was Active.

For the compound `CCCCCCCCCCCCCCCC(=O)Oc1ccc2c(=O)c(-c3ccc(OC)cc3)coc2c1`, the outcome in the data set on 3T3-L1 [5] was inactive. Also, the inhibition result with 3T3-L1 [6] was “Active”. Also, in the data set on 3T3-L1 [7], the outcome was Active.

With `CCCCCCCC/C=C\CCCCCCCC(=O)Oc1ccc2c(=O)c(-c3ccc(OC)cc3)coc2c1` [OLEOYL FORMONONETIN], the Activity is 0.91 mmol/L with Rattus norvegicus [8]; 309 g with Rattus norvegicus [9]; 5 g/100 g body weight in the data set on Rattus norvegicus [10]; 1.31 mmol/L in the data set on Rattus norvegicus [14]; 606.7 µmol/L with Rattus norvegicus [18]. Further, the result with 3T3-L1 [5], in the data set with 3T3-L1 [11], with Mus musculus [12], in the data set on Mus musculus [15], in the data set on Mus musculus [17] and in the data set with 3T3-L1 [7] was Active. For the same compound, the result in the data set on Mus musculus [19] and with Mus musculus [20] was Active. The inhibition entry in the data set with 3T3-L1 [6] and in the data set on 3T3-L1 [13] was “Active” in each case. Further, in data set [16], the LD50 was 2160 mg/kg.

Take `CC(C)CC(N(C)C)C1(c2ccc(Cl)cc2)CCC1` (stereo unspecified) [SIBUTRAMINE]: the Activity with Rattus norvegicus [21] stood at 301 g; in the data set with Rattus norvegicus [22], 0.97 mmol/L; in the data set on Rattus norvegicus [23], 4.3 g; in the data set with Rattus norvegicus [24], 1.32 mmol/L; in the data set with Rattus norvegicus [25], 609.6 µmol/L.

For the compound `COc1ccc(-c2coc3cc(O)ccc3c2=O)cc1`, in the data set on 3T3-L1 [5], the result was Active.

As to `CCCCCCCCCCCCCCCCCC(=O)Oc1ccc(-c2coc3cc(OC)ccc3c2=O)cc1`, the Activity in the data set on Rattus norvegicus [8] was determined as 1.35 mmol/L; in the data set on Rattus norvegicus [9], 352 g; in the data set on Rattus norvegicus [10], 6 g/100 g body weight; in the data set on Rattus norvegicus [14], 1.71 mmol/L; in the data set on Rattus norvegicus [18], 738.1 µmol/L.

On to `CCCCCCCC/C=C\CCCCCCCC(=O)Oc1ccc(-c2coc3cc(OC)ccc3c2=O)cc1`, for which the Activity in the data set with Rattus norvegicus [8] was 1.01 mmol/L; in the data set on Rattus norvegicus [9], 328 g; in the data set with Rattus norvegicus [10] it was 5.6 g/100 g body weight; in the data set on Rattus norvegicus [14], 1.65 mmol/L; with Rattus norvegicus [18] it was 696.3 µmol/L.

With `CCCCCCCCCCCCCCCCCC(=O)Oc1ccc2c(=O)c(-c3ccc(OC)cc3)coc2c1`, the Activity in the data set on Rattus norvegicus [8] is 1.19 mmol/L; with Rattus norvegicus [9], 320 g; with Rattus norvegicus [10], 5.4 g/100 g body weight; with Rattus norvegicus [14], 1.57 mmol/L; in the data set with Rattus norvegicus [18], 730.2 µmol/L. In addition, the result in the data set with 3T3-L1 [5] was inactive. The inhibition entry in the data set with 3T3-L1 [6] was “Active”. Moreover, the outcome with 3T3-L1 [7] was Active.

On to `CCCCC/C=C\C/C=C\CCCCCCCC(=O)Oc1ccc(-c2coc3cc(OC)ccc3c2=O)cc1`, for which the Activity in the data set on Rattus norvegicus [8] is 1.03 mmol/L; with Rattus norvegicus [9] it was 318 g; in the data set with Rattus norvegicus [10], 5.1 g/100 g body weight; in the data set on Rattus norvegicus [14], 1.67 mmol/L; with Rattus norvegicus [18], 658.8 µmol/L.

Turning to `CCCCC/C=C\C/C=C\CCCCCCCC(=O)Oc1ccc2c(=O)c(-c3ccc(OC)cc3)coc2c1`, the Activity in the data set with Rattus norvegicus [8] turned out to be 0.99 mmol/L; in the data set on Rattus norvegicus [9], 307 g; in the data set on Rattus norvegicus [10], 4.3 g/100 g body weight; with Rattus norvegicus [14] it was 1.28 mmol/L; with Rattus norvegicus [18], 603.8 µmol/L. In addition, the outcome with 3T3-L1 [5] and with 3T3-L1 [7] was Active. Moreover, the inhibition result in the data set with 3T3-L1 [6] was “Active”.
